Reference: US20150274719A1, “AMINO-SUBSTITUTED IMIDAZO[1,2-A]PYRIDINECARBOXAMIDES AND THEIR USE” (BAYER PHARMA AKTIENGESELLSCHAFT, priority 2012, published 2015)
Structures can show the parent of a compound that is named as a salt.

The compounds below were run against T1, recombinant guanylate cyclase reporter cell line (Rattus norvegicus, UniProt P19686+P20595) (assay: Action on recombinant guanylate cyclase reporter cell line). Conditions: in some cases mean values from individual determinations.
T1 construct: expressed in transfected cells; host or cells: recombinant reporter cell line
T1 sequence (P19686 1-690): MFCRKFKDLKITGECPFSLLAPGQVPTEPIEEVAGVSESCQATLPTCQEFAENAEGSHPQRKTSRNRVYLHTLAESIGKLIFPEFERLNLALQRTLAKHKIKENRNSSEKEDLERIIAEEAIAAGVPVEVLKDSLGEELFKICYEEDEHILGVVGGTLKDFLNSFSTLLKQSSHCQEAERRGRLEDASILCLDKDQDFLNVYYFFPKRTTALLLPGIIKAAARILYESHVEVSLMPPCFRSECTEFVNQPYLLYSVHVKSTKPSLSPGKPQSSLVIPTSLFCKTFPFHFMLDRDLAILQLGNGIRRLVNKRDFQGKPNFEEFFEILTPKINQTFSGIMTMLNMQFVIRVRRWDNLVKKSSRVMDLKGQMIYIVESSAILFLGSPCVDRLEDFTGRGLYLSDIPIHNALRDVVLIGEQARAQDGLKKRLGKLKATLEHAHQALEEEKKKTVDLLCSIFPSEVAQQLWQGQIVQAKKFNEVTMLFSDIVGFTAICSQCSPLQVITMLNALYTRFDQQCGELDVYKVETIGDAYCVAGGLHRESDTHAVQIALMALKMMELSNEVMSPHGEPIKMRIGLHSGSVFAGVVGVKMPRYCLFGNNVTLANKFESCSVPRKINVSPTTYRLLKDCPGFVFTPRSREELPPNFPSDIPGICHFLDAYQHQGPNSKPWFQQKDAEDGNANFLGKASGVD
T1 sequence (P20595 1-619): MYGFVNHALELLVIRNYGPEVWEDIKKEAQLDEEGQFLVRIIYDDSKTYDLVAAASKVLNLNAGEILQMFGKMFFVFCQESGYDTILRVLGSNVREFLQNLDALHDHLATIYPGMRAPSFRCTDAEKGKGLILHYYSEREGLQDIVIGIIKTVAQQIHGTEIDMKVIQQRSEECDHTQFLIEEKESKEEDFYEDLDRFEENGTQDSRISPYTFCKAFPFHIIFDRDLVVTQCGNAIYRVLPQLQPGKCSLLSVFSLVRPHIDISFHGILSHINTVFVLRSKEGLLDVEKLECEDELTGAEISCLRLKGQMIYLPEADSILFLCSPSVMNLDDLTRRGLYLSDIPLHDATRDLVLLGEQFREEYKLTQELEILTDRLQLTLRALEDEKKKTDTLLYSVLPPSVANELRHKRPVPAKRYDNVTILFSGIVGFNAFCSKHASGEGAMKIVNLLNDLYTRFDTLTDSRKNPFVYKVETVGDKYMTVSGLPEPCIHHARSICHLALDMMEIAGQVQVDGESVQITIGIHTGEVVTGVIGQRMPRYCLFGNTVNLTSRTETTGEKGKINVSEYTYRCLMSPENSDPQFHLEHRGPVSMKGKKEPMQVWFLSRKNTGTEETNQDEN
Assay type: cell-based
How it was run: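 Reported value is the minimal effective concentration (MEC), in some cases a mean of single runs, taken from a recombinant rat guanylate cyclase reporter cell line.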

Compound	MEC (minimal effective concentration)
Cc1nc2c(OCc3c(F)cccc3F)cc(Cl)cn2c1C(=O)NCC(N)CC(F)(F)F (single isomer, unassigned) [Example 192, ent-N-(2-Amino-4,4,4-trifluorobutyl)-6-chloro-8-[(2,6-difluorobenzyl)oxy]-2-methylimidazo[1,2-a]pyridine-3-carboxamide]	0.30 µM
Cc1nc2c(OCc3ccccc3F)cccn2c1C(=O)NC(CN)c1ccc(F)c(F)c1 (stereo not drawn) [Example 98, ent-N-[2-Amino-1-(3,4-difluorophenyl)ethyl]-8-[(2-fluorobenzyl)oxy]-2-methylimidazo[1,2-a]-pyridine-3-carboxamide]	1.00 µM
Cc1nc2c(OCc3c(F)cccc3F)cccn2c1C(=O)NCC(N)C(F)(F)C(F)F (racemic) [Example 230, rac-N-(2-Amino-3,3,4,4-tetrafluorobutyl)-8-[(2,6-difluorobenzyl)oxy]-2-methylimidazo[1,2-a]-pyridine-3-carboxamide]	1.00 µM
Cc1nc2c(OCc3c(F)cccc3F)cc(Cl)cn2c1C(=O)NCCNC(C)C [Example 149, 6-chloro-8-[(2,6-difluorobenzyl)oxy]-N-[2-(isopropylamino)ethyl]-2-methylimidazo[1,2-a]-pyridine-3-carboxamide]	1.00 µM
Cc1nc2c(OCc3c(F)cccc3F)cccn2c1C(=O)NC(CN1CCOCC1)c1ccccc1 (single isomer, unassigned; ent-8) [Example 182, ent-8-[(2,6-Difluorobenzyl)oxy]-2-methyl-N-[2-(morpholin-4-yl)-1-phenylethyl]imidazo[1,2-a]-pyridine-3-carboxamide]	3.00 µM
Cc1nc2c(OCc3c(F)cccc3F)cccn2c1C(=O)NC(CN)COC(C)C (single isomer, unassigned) [Example 93, ent-N-(1-Amino-3-isopropoxypropan-2-yl)-8-[(2,6-difluorobenzyl)oxy]-2-methylimidazo[1,2-a]-pyridine-3-carboxamide]	0.30 µM
COCC(CN)NC(=O)c1c(C)nc2c(OCc3c(F)cccc3F)cc(C)cn12 (single isomer, unassigned) [Example 210, ent-N-(1-amino-3-methoxypropan-2-yl)-8-[(2,6-difluorobenzyl)oxy]-2,6-dimethylimidazo[1,2-a]-pyridine-3-carboxamide trifluoroacetate]	0.30 µM
Cc1nc2c(OCc3c(F)cccc3F)cc(Cl)cn2c1C(=O)NCC1(N)CC1 [Example 39, N-[(1-aminocyclopropyl)methyl]-6-chloro-8-[(2,6-difluorobenzyl)oxy]-2-methylimidazo[1,2-a]pyridine-3-carboxamide]	0.10 µM
Cc1cc(OCc2c(F)cccc2F)c2nc(C)c(C(=O)NC34CCC3CNC4)n2c1 (racemic) [Example 346, rac-N-(3-azabicyclo[3.2.0]hept-1-yl)-8-[(2,6-difluorobenzyl)oxy]-2,6-dimethylimidazo[1,2-a]pyridine-3-carboxamide]	1.00 µM
Cc1nc2c(OCc3c(F)cc(F)cc3F)cccn2c1C(=O)NC(CN)c1ccc(F)c(F)c1 (stereo not drawn) [Example 101, ent-N-[2-amino-1-(3,,4-difluorophenyl)ethyl]-2-methyl-8-[(2,4,6-trifluorobenzyl)oxy]imidazo[1,2-a]pyridine-3-carboxamide]	1.00 µM
Cc1cc(OCCC(C(F)(F)F)C(F)(F)F)c2nc(C)c(C(=O)NCC(C)(N)CC(C)C)n2c1 (racemic) [Example 258, rac-N-(2-Amino-2,4-dimethylpentyl)-2,6-dimethyl-8-[4,4,4-trifluoro-3-(trifluoromethyl)butoxy]-imidazo[1,2-a]pyridine-3-carboxamide]	1.00 µM
CCCC(C)(N)CNC(=O)c1cnc2c(OCc3c(F)cccc3F)cccn12 (stereo not drawn) [Example 354, ent-N-(2-amino-2-methylpentyl)-8-[(2,6-difluorobenzyl)oxy]imidazo[1,2-a]pyridine-3-carboxamide]	3.00 µM
Cc1cc(OCc2c(F)cccc2F)c2nc(C)c(C(=O)NC3CC3N)n2c1 (racemic) [Example 330, rac-N-(2-aminocyclopropyl)-8-[(2,6-difluorobenzyl)oxy]-2,6-dimethylimidazo[1,2-a]pyridine-3-carboxamide]	0.30 µM
Cc1cc(OCc2c(F)cccc2F)c2nc(C)c(C(=O)NCC(N)c3cccc(OCCO)c3)n2c1 (racemic) [Example 367, rac-N-{2-amino-2-[3-(2-hydroxyethoxy)phenyl]ethyl}-8-[(2,6-difluorobenzyl)oxy]-2,6-dimethylimidazo[1,2-a]pyridine-3-carboxamide]	3.00 µM
CCCC(C)(N)CNC(=O)c1c(C)nc2c(OCc3c(F)cccc3F)cc(CF)cn12 (stereo not drawn) [Example 403, ent-N-(2-amino-2-methylpentyl)-8-[(2,6-difluorobenzyl)oxy]-6-(fluoromethyl)-2-methylimidazo[1,2-a]pyridine-3-carboxamide]	0.10 µM
CCC(C)(N)CNC(=O)c1c(C)nc2c(OCc3c(F)ccc(F)c3F)cc(C)cn12 (single isomer, unassigned; enantiomer a) [Example 300, ent-N-(2-amino-2-methylbutyl)-2,6-dimethyl-8-[(2,3,6-trifluorobenzyl)oxy]imidazo[1,2-a]pyridine-3-carboxamide (Enantiomer A) hydrochloride]	0.10 µM
Cc1cc(OCc2c(F)cccc2F)c2nc(C)c(C(=O)NC3CC(C)(C)C3N)n2c1 (mixture of isomers) [Example 358, N-(2-amino-3,3-dimethylcyclobutyl)-8-[(2,6-difluorobenzyl)oxy]-2,6-dimethylimidazo[1,2-a]pyridine-3-carboxamide Formate (Isomer Mixture)]	0.30 µM
Cc1cc(OCc2c(F)cccc2F)c2nc(C)c(C(=O)NC3CCC(N)C3)n2c1 (mixture of isomers) [Example 308, N-(3-aminocyclopentyl)-8-[(2,6-difluorobenzyl)oxy]-2,6-dimethylimidazo[1,2-a]pyridine-3-carboxamide (stereoisomer mixture)]	0.20 µM
Cc1nc2c(OCc3c(F)cccc3F)cccn2c1C(=O)NCC(C(C)C)N(C)C (racemic) [Example 142, rac-8-[(2,6-difluorobenzyl)oxy]-N-[2-(dimethyl-amino)-3-methylbutyl]-2-methylimidazo[1,2-a]-pyridine-3-carboxamide]	1.00 µM
Cc1nc2c(OCc3c(F)cccc3F)cccn2c1C(=O)NCC(N)C(C)C (single isomer, unassigned) [Example 229, ent-N-(2-Amino-3-methylbutyl)-8-[(2,6-difluorobenzyl)oxy]-2-methylimidazo[1,2-a]pyridine-3-carboxamide]	1.00 µM
COCC(CN)NC(=O)c1c(C)nc2c(OCc3c(F)cccc3F)cccn12 (single isomer, unassigned) [Example 123, ent-N-(1-Amino-3-methoxypropan-2-yl)-8-[(2,6-difluorobenzyl)oxy]-2-methylimidazo[1,2-a]-pyridine-3-carboxamide ditrifluoroacetate]	3.00 µM
CCC(C)(N)CNC(=O)c1c(C)nc2c(OCc3c(F)cccc3F)cc(CF)cn12 (centres unmarked) [Example 404]	0.30 µM
Cc1cc(OCc2c(F)cccc2F)c2nc(C)c(C(=O)NCC(N)c3cc(F)c(F)c(F)c3)n2c1 (racemic) [Example 374, rac-N-[2-amino-2-(3,4,5-trifluorophenyl)ethyl]-8-[(2,6-difluorobenzyl)oxy]-2,6-dimethylimidazo[1,2-a]pyridine-3-carboxamide]	1.00 µM
